Experiments:
[1] = Activation of ATP-sensitive potassium channel opening in albino rat aorta rings assessed as relaxation of KCl-induced contraction of aorta rings; type: tissue-based
Rattus norvegicus = species: Rattus norvegicus; assay: Activation of ATP-sensitive potassium channel opening in albino rat pancreatic islets assessed as inhibition of glucose-induced insulin release measured as residual insulin release at 10 uM after 90 mins by radioimmunoassay
Aorta [2] = assay: Myorelaxant activity in albino rat aorta rings assessed as relaxation of 30 mM KCl-induced contraction of aorta rings; type: functional, tissue-based
Aorta [3] = assay: Myorelaxant activity in albino rat aorta rings assessed as relaxation of KCl-induced contraction of aorta rings in presence of 1 uM KATP channel blocker glibenclamide; type: functional, tissue-based
Aorta [4] = assay: Myorelaxant activity in albino rat aorta rings assessed as relaxation of KCl-induced contraction of aorta rings in presence of 10 uM KATP channel blocker glibenclamide; type: functional, tissue-based
Aorta [5] = assay: Myorelaxant activity in albino rat aorta rings assessed as relaxation of 80 mM KCl-induced contraction of aorta rings; type: functional, tissue-based
Aorta [6] = assay: Myorelaxant activity in albino rat aorta rings assessed as relaxation of KCl-induced contraction of aorta rings; type: functional, tissue-based
[7] = Dissociation constant, pKa of the compound in water at 25 degC; type: physicochemical

Row | SMILES | EC50 [1] [µM] | Activity (Rattus norvegicus) [%] | further results
1 | O=[N+]([O-])c1ccc2c(c1)S(=O)(=O)N=C(NCC1CC1)S2 | 61.1 | 90.2 | –
2 | COc1ccc(CCN(C)CCCC(C#N)(c2ccc(OC)c(OC)c2)C(C)C)cc1OC (configuration not stated) [VERAPAMIL] | – | – | EC50 (Aorta [2]): 0.031 µM; EC50 (Aorta [3]): 0.038 µM; EC50 (Aorta [4]): 0.35 µM; EC50 (Aorta [5]): 0.052 µM; Activity (Aorta [6]): Dose-dependent effect
3 | CC(SC1=NS(=O)(=O)c2cc(F)ccc2N1)c1ccccc1 (configuration not stated) [listing 1 of 2 here] | – | 95.5 | –
4 | CC(SC1=NS(=O)(=O)c2cccc(Cl)c2N1)c1ccccc1 (configuration not stated) | > 30 | 79.2 | –
5 | CC(SC1=NS(=O)(=O)c2cc(Cl)ccc2N1)c1ccccc1 (configuration not stated) | 5.4 | 71.1 | –
6 | O=S1(=O)N=C(NC2CCCC2)Sc2ccc(C(F)(F)F)cc21 | 48.7 | 89.5 | –
7 | CC(SC1=NS(=O)(=O)c2cc(I)ccc2N1)c1ccccc1 (configuration not stated) | 5.4 | 81.4 | –
8 | CC(SC1=NS(=O)(=O)c2cc(F)ccc2N1)c1ccccc1 (racemic) | – | – | EC50 (Aorta [2]): 13.2 µM; EC50 (Aorta [3]): 33.3 µM; EC50 (Aorta [4]; read-out: EC50): 36.2 µM; EC50 (Aorta [5]): 27.5 µM
9 | CS(=O)(=O)c1ccc2c(c1)S(=O)(=O)N=C(Nc1ccccc1)S2 | > 30 | 92.4 | –
10 | CC1=Nc2ccc(Cl)cc2S(=O)(=O)N1 [DIAZOXIDE] | 26.2 | 73.9 | EC50 (Aorta [2]): 23.8 µM; EC50 (Aorta [3]): 154 µM; EC50 (Aorta [4]; read-out: EC50): 280 µM; EC50 (Aorta [5]): > 300 µM
11 | O=S1(=O)N=C(Nc2ccccc2)Sc2ccc(C(F)(F)F)cc21 | 13.7 | 67.8 | –
12 | O=[N+]([O-])c1ccc2c(c1)S(=O)(=O)N=C(NC1CCCC1)S2 | 42.6 | 100 | –
13 | CC(SC1=NS(=O)(=O)c2cc(Br)ccc2N1)c1ccccc1 (configuration not stated) | 11.9 | 91.7 | –
14 | CC(SC1=NS(=O)(=O)c2cc(F)ccc2N1)c1ccccc1 (configuration not stated) [listing 2 of 2 here] | 15 | – | –
15 | O=[N+]([O-])c1ccc2c(c1)S(=O)(=O)N=C(Nc1ccccc1)S2 | > 200 | 89.5 | –
16 | O=[N+]([O-])c1ccc2c(c1)S(=O)(=O)N=C(NCc1ccccc1)S2 | > 30 | 77.7 | –
17 | CC(SC1=NS(=O)(=O)c2ccc(Cl)cc2N1)c1ccccc1 (configuration not stated) | 5.7 | 76.3 | –

Second part, led by results:

Row | EC50 [1] [µM] | Activity (Rattus norvegicus) [%] | SMILES | further results
18 | > 30 | – | C[C@@H](NC1=NS(=O)(=O)c2cc(C(F)(F)F)ccc2S1)c1ccccc1 | –
19 | – | 97 | CC(NC1=NS(=O)(=O)c2cc(C(F)(F)F)ccc2S1)c1ccccc1 (racemic) [listing 1 of 2 here] | –
20 | 190 | 90.6 | CC(C)NC1=NS(=O)(=O)c2cnccc2S1 | –
21 | 152 | 86.2 | CC(C)NC1=NS(=O)(=O)c2cc(C#N)ccc2S1 | –
22 | 11.6 | – | CC(NC1=NS(=O)(=O)c2cc(C(F)(F)F)ccc2S1)c1ccccc1 (racemic) [listing 2 of 2 here] | EC50 (Aorta [2]): 16.2 µM; EC50 (Aorta [3]): 17.3 µM; EC50 (Aorta [4]; read-out: EC50): 15.5 µM; EC50 (Aorta [5]): 14.9 µM
23 | 69.1 | 110 | CC(C)CNC1=NS(=O)(=O)c2cc([N+](=O)[O-])ccc2S1 | –
24 | > 200 | 68.5 | CC(C)NC1=NS(=O)(=O)c2cc(C(=O)O)ccc2S1 | –
25 | > 30 | 82.4 | CC(C)NC1=NS(=O)(=O)c2cccc(Cl)c2S1 | –
26 | > 30 | 78.9 | CC(C)NC1=NS(=O)(=O)c2ccc(Cl)cc2S1 | –
27 | 53.7 | 108 | CC(C)NC1=NS(=O)(=O)c2cc(C(F)(F)F)ccc2S1 | –
28 | 176 | 97.7 | CC(C)NC1=NS(=O)(=O)c2cc([N+](=O)[O-])ccc2S1 | –
29 | 31.8 | 4.8 | CC(C)NC1=NS(=O)(=O)c2cc(Cl)ccc2N1 | –
30 | 59.9 | 110 | CCC(C)NC1=NS(=O)(=O)c2cc([N+](=O)[O-])ccc2S1 (configuration not stated) | –
31 | > 200 | 76.3 | CC(C)NC1=NS(=O)(=O)c2cc(S(C)(=O)=O)ccc2S1 | –
32 | > 100 | 92.2 | CC(C)NC1=NS(=O)(=O)c2cc(Cl)ccc2S1 | pKa [7]: 9.76
33 | 38.8 | 110 | CCC(C)NC1=NS(=O)(=O)c2cc(C(F)(F)F)ccc2S1 (configuration not stated) | –
34 | > 30 | 83.4 | CC(NC1=NS(=O)(=O)c2cc(S(C)(=O)=O)ccc2S1)c1ccccc1 (configuration not stated) | –
35 | > 200 | 76.7 | CC(C)NC1=NS(=O)(=O)c2c[n+]([O-])ccc2S1 | –
36 | > 200 | 88.2 | O=[N+]([O-])c1ccc2c(c1)S(=O)(=O)N=C(NC1CC1)S2 | –
37 | > 30 | 100 | CCNC1=NS(=O)(=O)c2cc([N+](=O)[O-])ccc2S1 | –
38 | 11.3 | – | C[C@H](NC1=NS(=O)(=O)c2cc(C(F)(F)F)ccc2S1)c1ccccc1 | –
39 | – | 97 | CC(NC1=NS(=O)(=O)c2cc(C(F)(F)F)ccc2S1)c1ccccc1 (stereo in doubt; 6t) | –
40 | 15.9 | 91.5 | CC(NC1=NS(=O)(=O)c2cc([N+](=O)[O-])ccc2S1)c1ccccc1 (configuration not stated) | –
